{"source": "patent US6069156A", "about": "“Indole derivatives as cGMP-PDE inhibitors” (Fujisawa Pharmaceutical Co., Ltd., priority 1995, dated 2000)", "key": {"[1]": {"biological_target": "T1, cGMP-PDE (Homo sapiens, UniProt O76074)", "T1 construct": "cGMP-PDE was separated from other isozymes in human platelets; from tissue; host or cells: human platelets", "test": "cGMP-phosphodiesterase (PDE) Assay (human platelets)", "type": "biochemical"}, "[2]": {"test_system": "aorta (spirally cut strips)", "test": "Smooth Muscle Relaxant: noradrenaline-contracted rat aorta strips", "design": "species or system male Wistar rats", "settings": "contraction by noradrenaline 1 μM, 37° C.", "procedure": "The aorta were carefully removed from male Wistar rats, cleaned of fat and extraneous tissue. Spirally cut strips of the aorta were placed in a 25 ml organ bath containing Tyrode solution of the following composition (mM); NaCl, 137; KCl, 2.7; CaCl2, 1.8; NaH2 PO4, 0.4; NaHCO3, 12.0; MgSO4, 1.1; glucose, 5.6. The bath was maintained at 37° C. and bubbled with 95% O2 and 5% CO2. The spirally cut strip was stretched to a resting force of 1.0 g, and the isometric contraction was recorded via a force development transducer on an ink writing recorder. Tissues were equilibrated for 60 minutes before contraction was induced by noradrenaline (NA, 1 μM). The test compounds were cumulatively added to organ bath in increasing concentrations ranging from 10^-8 to 10^-5 M, after maximum stable constriction to NA had been achieved."}, "[3]": {"test_system": "Coronary vasospasm induced with vasopressin", "test": "Vasopressin Induced-vasospasm Model (ST segment depression)", "type": "in vivo, Male Donryu rats", "settings": "10 mg/kg orally 30 minutes before vasopressin 0.2 iu/kg", "procedure": "Vasopressin Induced-vasospasm Model\nMale Donryu rats, weighing 160-200 g, were anesthetized intraperitoneally with sodium pentobarbital (60 mg/kg) 15 minutes before intravenous administration of vasopressin, and the femoral vein was cannulated with polyethylene tubing (diameter 0.8 mm). Coronary vasospasm was induced with vasopressin (0.2 iu/kg) dissolved in saline through the cannula in the femoral vein. The each test compound (10 mg/kg) was administered orally 30 minutes before the administration of vasopressin. The standard limb lead II of the electrocardiogram was recorded with an electrocardiograph. The depression of ST segment was measured as the difference in the amplitudes of the ST segment after and just before the administration of vasopressin. The amplitudes of ST segment were measured at intervals of 0.5 minutes for 5 minutes after administration of vasopressin."}, "[4]": {"test_system": "Cyclosporin nephritis", "test": "Cyclosporin Nephritis Model", "type": "in vivo, Spontaneously hypertensive rats", "settings": "3.2 mg/kg orally twice a day for two weeks; cyclosporin 50 mg/kg daily", "procedure": "Cyclosporin Nephritis Model\nSpontaneously hypertensive rats weighing 250-300 g were used. Cyclosporin dissolved in olive-oil containing 5% ethanol was given orally to the animals in a daily dose 50 mg/kg for 2 weeks. After the last dosing of cyclosporin, 24-hours urine was collected for urinalysis. Blood was withdrawn from the abdominal aorta under ether anesthesia 24 hours after the last dosing of cyclosporin, and plasma was separated by centrifugation for biochemical analysis. The animal were bled to death and kidneys were removed for histopathological examination.\nThe each test compound (3.2 mg/kg) was dissolved in PEG 400 and given orally by the volume of 1 ml/kg twice a day for two weeks.\n(§1) Biochemistry and urinalysis: Urine volume, plasma creatinine, urine creatinine, blood urea nitrogen, plasma sodium, urine sodium, plasma potassium and urine potassium, were measured with an autoanalyzer (TBA-20R Toshiba, OM-6020 Daiichi Kagaku).\nHistopathology: The kidneys were fixed in phosphate-buffered 10% formalin and its paraffin specimens were prepared and these sections were stained with hematoxylin."}, "[5]": {"test_system": "FK506 nephritis", "test": "FK506 Nephritis Model (a)", "type": "in vivo, Spontaneously hypertensive rats", "settings": "orally twice a day for two weeks; FK506 18 mg/kg daily for 1 week", "procedure": "(a) Spontaneously hypertensive rats weighing 250-300 g were used. FK506 dissolved in olive-oil containing 5% ethanol was given orally to the animals in a daily dose 18 mg/kg for 1 week. After the last dosing of FK506, 24-hours urine was collected for urinalysis. Blood was withdrawn from the abdominal aorta under ether anesthesia 24 hours after the last dosing of FK506, and plasma was separated by centrifugation for biochemical analysis.\nThe each test compound was dissolved in PEG 400 and given orally by the volume of 1 ml/kg twice a day for two weeks.\nas §1"}, "[6]": {"test_system": "corpora cavernosa", "test": "Effect on Nitroprusside or Ach-induced Relaxation in Isolated Rat Corpora Cavernosa", "design": "species or system Male SD rats", "settings": "compound at 10^-7 M", "procedure": "(a) Effect of Test Compound on Nitroprusside or Ach-induced Relaxation in Isolated Rat Corpora Cavernosa\nMale SD rats were anesthetized with sodium pentobarbital 50 mg/kg intraperitoneally, and the corpora cavernosa was excised. The tunica albuginea was dissected according to the methods described by Italiano et al. (Pharmacological Research, 30, No.4, 1994) and used for in vitro pharmacological study. The erectile tissue strip was placed in a 25 ml organ bath containing Krebs-Ringer solution. The bath was maintained at 37° C. and bubbled with 95% O2 and 5% CO2. The strip was stretched with a resting force of 0.25 g, and isometric contraction were recorded via force development transducer on a recorder.\nThe strip was equilibrated in the Krebs-Ringer solution for about 60 minutes, and preconstructed by 0.1 mM norepinephrine to ascertain the responsibility of each preparation. The strip was washed several times, and then constricted by 0.1 mM norepinephrine. After getting stable constrictile response to norepinephrine, the first dose-response curve for sodium nitroprusside or Ach was obtained. After washing a few times for 60 minutes, the strip was constricted by norepinephrine again, and the second dose-response curve for sodium nitroprusside or Ach was obtained. The test compound was added 30 minutes before adding norepinephrine."}, "[7]": {"test": "Toxicity by repetitive oral administration", "type": "in vivo, SD rat", "settings": "32 mg/kg once a day orally, 14 consecutive days"}}, "data": [{"molecule": "CCCc1c(C(=O)C(C)C)c2ccc(C(N)=O)cc2n1Cc1ccccc1Cl", "note": "[Example 6, 1-(2-chlorobenzyl)-3-isobutyryl-2-propylindole-6-carboxamide]", "values": [{"measurement": "IC50", "setting": "[1]", "result": "< 100", "unit": "nM"}, {"measurement": "IC50", "setting": "[2]", "result": "< 100", "unit": "nM"}, {"measurement": "inhibiting activity (depression of ST segment)", "setting": "[3]", "result": "more than 50%"}, {"measurement": "recovery in a measure of blood urea nitrogen", "setting": "[4]", "result": "more than 50%"}, {"measurement": "recovery in a measure of creatinine clearance (ml/kg/min)", "setting": "[4]", "result": "more than 40%"}, {"measurement": "recovery in a measure of creatinine clearance (ml/kg/min)", "setting": "[5]", "result": "more than 45%"}, {"measurement": "recovery in urinary sodium excretion", "setting": "[5]", "result": "more than 50%"}, {"measurement": "Ach-induced relaxation of corpora cavernosa", "setting": "[6]", "result": "potentiated Ach-induced relaxation of corpora cavernosa"}, {"measurement": "nitroprusside-induced relaxation of corpora cavernosa", "setting": "[6]", "result": "potentiated nitroprusside-induced relaxation of corpora cavernosa"}, {"measurement": "100 μM Ach-induced relaxant response", "setting": "[6]; contraction by 10^-4 M norepinephrine, control 11.0%", "result": 18.7, "unit": "%"}, {"measurement": "death on repetitive oral administration", "setting": "[7]", "result": "the dead at dose of 32 mg/kg once a day for 14 consecutive days could not be observed"}]}]}
